Read-outs that look alike come from different tables or passages of the source. Where only a bound is given, the exact number is not on record here.

Among the data in article PMC7912740 (Pharmaceutics, 2021) are Ki and IC50 values, retold here.

Common to all, as to format: biochemical
In assay [1] the target is T1, UGT1A3 (Homo sapiens, UniProt P35503).
T1 construct: native enzyme in ultrapooled human liver microsomes (Corning 452161), read by chenodeoxycholic acid 24-acyl-glucuronidation
T1 sequence (P35503 29-534): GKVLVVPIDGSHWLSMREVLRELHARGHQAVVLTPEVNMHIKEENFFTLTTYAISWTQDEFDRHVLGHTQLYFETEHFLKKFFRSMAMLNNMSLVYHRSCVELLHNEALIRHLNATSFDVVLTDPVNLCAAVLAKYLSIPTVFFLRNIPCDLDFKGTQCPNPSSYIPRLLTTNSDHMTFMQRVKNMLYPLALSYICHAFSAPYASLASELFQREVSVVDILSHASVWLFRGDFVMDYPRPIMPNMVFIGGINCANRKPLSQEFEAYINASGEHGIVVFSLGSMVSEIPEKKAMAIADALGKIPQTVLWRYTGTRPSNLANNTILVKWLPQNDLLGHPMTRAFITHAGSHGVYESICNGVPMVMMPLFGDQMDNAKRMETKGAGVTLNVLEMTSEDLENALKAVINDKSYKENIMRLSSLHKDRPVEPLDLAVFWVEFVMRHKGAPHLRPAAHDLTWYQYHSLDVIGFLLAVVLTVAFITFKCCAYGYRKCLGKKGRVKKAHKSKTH
In words: chenodeoxycholic acid 24-acyl-glucuronidation in human liver microsomes, LC-MS/MS, Dixon plot. The note with it: chenodeoxycholic acid 1–10 µM, 5 mM UDPGA, 10 mM MgCl2, alamethicin, pH 7.4, 30 min; competitive.

Assay [2] deals with T2, UGT1A4 (Homo sapiens, UniProt P22310).
T2 construct: native enzyme in ultrapooled human liver microsomes (Corning 452161), read by trifluoperazine N-glucuronidation
T2 sequence (P22310 29-534): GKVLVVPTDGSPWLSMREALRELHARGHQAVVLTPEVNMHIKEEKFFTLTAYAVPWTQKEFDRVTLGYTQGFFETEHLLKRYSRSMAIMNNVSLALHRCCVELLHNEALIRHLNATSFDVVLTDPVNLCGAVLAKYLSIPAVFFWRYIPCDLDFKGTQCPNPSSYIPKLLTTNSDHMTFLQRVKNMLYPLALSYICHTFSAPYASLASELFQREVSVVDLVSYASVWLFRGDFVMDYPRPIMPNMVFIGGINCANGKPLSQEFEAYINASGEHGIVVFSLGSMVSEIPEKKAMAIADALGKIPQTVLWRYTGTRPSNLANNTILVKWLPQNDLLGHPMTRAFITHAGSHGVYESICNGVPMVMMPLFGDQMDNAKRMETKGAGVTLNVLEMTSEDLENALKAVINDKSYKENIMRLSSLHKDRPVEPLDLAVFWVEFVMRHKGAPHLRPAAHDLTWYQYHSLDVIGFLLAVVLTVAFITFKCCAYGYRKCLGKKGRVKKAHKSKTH
The assay can be described thus: trifluoperazine N-glucuronidation in human liver microsomes, cocktail, LC-MS/MS. The note with it: 0.5 µM trifluoperazine (probe cocktail set A), 5 mM UDPGA, 10 mM MgCl2, alamethicin, pH 7.4, 37 °C, 60 min; read-out: IC50 (μM) / Eudesmin.

In assay [3] the target is T3, UGT2B7 (Homo sapiens, UniProt P16662).
T3 construct: native enzyme in ultrapooled human liver microsomes (Corning 452161), read by naloxone 3-glucuronidation
T3 sequence (P16662 24-529): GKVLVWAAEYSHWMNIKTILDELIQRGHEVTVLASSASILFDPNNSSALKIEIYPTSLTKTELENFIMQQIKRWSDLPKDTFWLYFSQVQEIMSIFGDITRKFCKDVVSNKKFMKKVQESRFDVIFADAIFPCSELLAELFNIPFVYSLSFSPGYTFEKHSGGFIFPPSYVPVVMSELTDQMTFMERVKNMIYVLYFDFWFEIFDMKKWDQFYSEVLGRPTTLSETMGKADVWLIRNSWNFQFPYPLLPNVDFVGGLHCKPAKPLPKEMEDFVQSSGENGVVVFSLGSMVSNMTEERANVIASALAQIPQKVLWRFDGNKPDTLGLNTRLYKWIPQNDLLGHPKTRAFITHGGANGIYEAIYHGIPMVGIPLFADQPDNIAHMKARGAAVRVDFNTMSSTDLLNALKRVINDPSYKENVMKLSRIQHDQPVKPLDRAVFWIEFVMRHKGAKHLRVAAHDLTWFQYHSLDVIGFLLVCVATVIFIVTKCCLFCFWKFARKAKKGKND
In words: naloxone 3-beta-D-glucuronidation in human liver microsomes, cocktail, LC-MS/MS. The note with it: 1 µM naloxone (probe cocktail set B), 5 mM UDPGA, 10 mM MgCl2, alamethicin, pH 7.4, 37 °C, 60 min; read-out: IC50 (μM) / Eudesmin.

Assay [4] deals with T1, UGT1A3. The assay can be described thus: chenodeoxycholic acid 24-acyl-glucuronidation in human liver microsomes, cocktail, LC-MS/MS. The note with it: 2 µM chenodeoxycholic acid (probe cocktail set A), 5 mM UDPGA, 10 mM MgCl2, alamethicin, pH 7.4, 37 °C, 60 min.
The target of assay [5] is T4, UGT1A1 (Homo sapiens, UniProt P22309).
T4 construct: native enzyme in ultrapooled human liver microsomes (Corning 452161), read by SN-38 glucuronidation
T4 sequence (P22309 26-533): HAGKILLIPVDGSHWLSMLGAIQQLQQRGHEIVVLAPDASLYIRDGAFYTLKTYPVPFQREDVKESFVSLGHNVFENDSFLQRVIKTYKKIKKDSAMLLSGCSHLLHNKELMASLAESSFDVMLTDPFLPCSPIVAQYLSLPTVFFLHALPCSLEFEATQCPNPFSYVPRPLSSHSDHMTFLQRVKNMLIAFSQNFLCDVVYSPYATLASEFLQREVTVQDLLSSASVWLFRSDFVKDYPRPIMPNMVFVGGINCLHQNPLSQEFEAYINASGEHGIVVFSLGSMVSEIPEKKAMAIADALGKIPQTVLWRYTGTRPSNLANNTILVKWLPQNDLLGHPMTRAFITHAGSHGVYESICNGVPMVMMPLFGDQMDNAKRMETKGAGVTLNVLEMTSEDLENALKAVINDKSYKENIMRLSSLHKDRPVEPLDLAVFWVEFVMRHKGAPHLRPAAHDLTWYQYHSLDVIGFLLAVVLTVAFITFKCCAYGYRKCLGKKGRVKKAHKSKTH
In words: SN-38 glucuronidation in human liver microsomes, cocktail, LC-MS/MS. The note with it: 0.5 µM SN-38 (probe cocktail set A), 5 mM UDPGA, 10 mM MgCl2, alamethicin, pH 7.4, 37 °C, 60 min.

Assay [6] addresses T4, UGT1A1. The assay can be described thus: SN-38 glucuronidation in human liver microsomes, LC-MS/MS, Dixon plot. The settings on record: SN-38 0.2–2 µM, 5 mM UDPGA, 10 mM MgCl2, alamethicin, pH 7.4, 30 min; noncompetitive.
For assay [7], the target named is T5, UGT1A9 (Homo sapiens, UniProt O60656).
T5 construct: native enzyme in ultrapooled human liver microsomes (Corning 452161), read by mycophenolic acid glucuronidation
T5 sequence (O60656 26-530): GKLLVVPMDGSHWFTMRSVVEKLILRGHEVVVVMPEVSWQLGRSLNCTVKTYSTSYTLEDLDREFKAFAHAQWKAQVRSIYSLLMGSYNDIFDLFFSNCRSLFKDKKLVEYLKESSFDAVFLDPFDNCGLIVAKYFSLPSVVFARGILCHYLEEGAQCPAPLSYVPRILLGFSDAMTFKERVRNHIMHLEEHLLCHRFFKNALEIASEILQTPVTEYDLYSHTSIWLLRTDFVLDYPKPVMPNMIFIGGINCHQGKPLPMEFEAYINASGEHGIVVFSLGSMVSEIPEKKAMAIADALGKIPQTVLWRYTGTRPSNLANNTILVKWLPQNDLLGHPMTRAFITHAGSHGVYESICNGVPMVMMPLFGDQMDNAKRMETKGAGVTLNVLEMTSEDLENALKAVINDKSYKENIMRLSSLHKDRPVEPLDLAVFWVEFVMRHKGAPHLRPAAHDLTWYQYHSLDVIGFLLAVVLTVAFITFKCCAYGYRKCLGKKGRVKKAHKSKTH
The assay can be described thus: mycophenolic acid glucuronidation in human liver microsomes, cocktail, LC-MS/MS. The settings on record: 0.2 µM mycophenolic acid (probe cocktail set B), 5 mM UDPGA, 10 mM MgCl2, alamethicin, pH 7.4, 37 °C, 60 min.

The target in assay [8] is T6, UGT1A6 (Homo sapiens, UniProt P19224).
T6 construct: native enzyme in ultrapooled human liver microsomes (Corning 452161), read by N-acetylserotonin glucuronidation
T6 sequence (P19224 27-532): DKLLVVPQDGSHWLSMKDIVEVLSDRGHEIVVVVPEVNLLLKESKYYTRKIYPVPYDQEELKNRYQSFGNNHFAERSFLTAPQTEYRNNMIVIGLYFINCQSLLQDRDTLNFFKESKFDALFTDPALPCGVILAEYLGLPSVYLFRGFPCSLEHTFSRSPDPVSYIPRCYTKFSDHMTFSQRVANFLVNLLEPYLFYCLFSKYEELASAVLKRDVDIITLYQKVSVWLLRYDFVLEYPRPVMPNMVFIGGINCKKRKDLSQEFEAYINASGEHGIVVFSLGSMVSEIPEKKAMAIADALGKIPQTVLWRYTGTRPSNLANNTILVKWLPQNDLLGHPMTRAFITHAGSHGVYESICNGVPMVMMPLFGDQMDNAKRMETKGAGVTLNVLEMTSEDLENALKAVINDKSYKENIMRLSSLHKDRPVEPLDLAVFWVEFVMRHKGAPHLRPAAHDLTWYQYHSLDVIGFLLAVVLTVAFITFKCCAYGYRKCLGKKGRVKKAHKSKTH
The assay can be described thus: N-acetylserotonin glucuronidation in human liver microsomes, cocktail, LC-MS/MS. The note with it: 1 µM N-acetylserotonin (probe cocktail set B), 5 mM UDPGA, 10 mM MgCl2, alamethicin, pH 7.4, 37 °C, 60 min.

The mark [9] stands for this setting: read-out: IC50 (μM) / Yangambin.
[10] abbreviates: read-out: IC50 (μM) / Epimagnolin A.

`COc1ccc([C@H]2OC[C@H]3[C@@H]2CO[C@@H]3c2ccc(OC)c(OC)c2)cc1OC` [Eudesmin]: the Ki in assay [1] was determined as 39.8 µM; in assay [6], 25.7 µM. Further, the IC50 in assay [2] was above 200 µM; in assay [3] it was above 200 µM; in assay [4] (read-out: IC50 (μM) / Eudesmin) it was 26.6 µM; in assay [5] (read-out: IC50 (μM) / Eudesmin) it was 24.3 µM; in assay [7] (read-out: IC50 (μM) / Eudesmin) it was 173 µM; in assay [8] (read-out: IC50 (μM) / Eudesmin) it was 196 µM.

For the compound `COc1cc([C@H]2OC[C@H]3[C@@H]2CO[C@@H]3c2cc(OC)c(OC)c(OC)c2)cc(OC)c1OC` [Yangambin], the inhibition constant (Ki) is 66.8 µM in assay [1] and 17.1 µM in assay [6]. In addition, the IC50 was above 200 µM in assay [2]; above 200 µM in assay [3]; 56.5 µM in assay [4] (setting [9]); 29.7 µM in assay [5] (setting [9]); above 200 µM in assay [7] (setting [10]); above 200 µM in assay [8] (setting [10]).
